Measurements as given in patent US10703757B2, “Compounds and methods for CDK8 modulation and indications therefor” (Plexxikon Inc., priority 2016, dated 2020).

Tested on: CDK8 (phosphorylation of STAT1 at serine 727 in A549 cells)
Test: Cell based Phospho-STAT1 assay (IFNγ-stimulated A549 cells, AlphaLISA)
Conditions: Homo sapiens, A549, A549 cells, phospho-STAT1 after IFNγ stimulation
Protocol: Determine Inhibitor Activity Against CDK8 in Cell Based Phospho-STAT1 Assay
This assay measures the phosphorylation of the CDK8 substrate STAT1 following Interferon-gamma (IFNγ) stimulation^1. The lung carcinoma cell line A549 is seeded in a 96 well plate in 50 μL of culture media at 5×10^4 cells/well and incubated at 37° C. overnight. Serial dilutions of compounds (in total volume of 50 μL culture media) are added to the cells and incubated at 37° C. for one hour. Human IFNγ (R&D Systems) is added to the cells at a 10 ng/mL final concentration. 4 wells containing DMSO treated cells stimulated with IFNγ serve as high controls and 4 wells containing DMSO treated unstimulated cells serve as low controls. After 30 minute IFNγ stimulation at 37° C., the culture media is removed and 50 μL of 1×AlphaLISA lysis buffer (PerkinElmer GA, USA) is added to each well. 5 μL cell lysate is transferred to a 384 well AlphaPlate (PerkinElmer GA, USA) and 5 μL containing 0.156 nM Phospho-STAT1 (Ser727) rabbit monoclonal antibody (Cell Signaling Technology), 0.156 nM Mouse Anti-STAT1 antibody (BD Transduction Laboratories), and 10 μg/mL Anti-rabbit IgG AlphaLISA acceptor beads (PerkinElmer GA, USA) diluted in 1× AlphaLISA immunoassay buffer (PerkinElmer GA, USA) is added to the cell lysates and incubated at room temperature for 90 minutes. 5 μL Anti-Mouse IgG Alpha donor beads diluted in 1× AlphaLISA immunoassay buffer (PerkinElmer GA, USA) is added to the reaction mixture and incubated at room temperature for 90 minutes. Upon excitation of these beads with laser light at 680 nm, singlet oxygen is produced. This singlet oxygen is rapidly quenched, unless the AlphaLISA Anti-Rabbit IgG acceptor beads are in close proximity, in which case a proximity signal can be measured at […]. In the presence of cellular CDK8 catalytic activity, there is a very strong proximity signal. Selective CDK8 inhibitors affect a decrease in this proximity signal through a decrease in phosphorylation of STAT1 at serine 727. The percentage inhibition at individual concentrations relative to high and low controls is calculated. The data are analyzed by using nonlinear regression to generate IC50 values.

Row | IC50 | Structure (SMILES)
1 | 0.1 to 1 µM | Cn1cc(-c2ccc(-c3cnc4cccc(NCC5CCOCC5)n34)cc2)cn1 [Compound P-0391, 3-(4-(1-methyl-1H-pyrazol-4-yl)phenyl)-N-((tetrahydro-2H-pyran-4-yl)methyl)imidazo[1,2-a]pyridin-5-amine]
2 | 1 to 10 µM | Cn1cc(-c2ccc(-c3cnc4cccc(N5CCNCC5)n34)cc2)cn1 [Compound P-0393, 3-(4-(1-methyl-1H-pyrazol-4-yl)phenyl)-5-(piperazin-1-yl)imidazo[1,2-a]pyridine]
3 | 0.1 to 1 µM | CN1CCN(c2cccc3ncc(-c4ccc(-c5cnn(C)c5)cc4)n23)CC1 [Compound P-0394, 3-(4-(1-methyl-1H-pyrazol-4-yl)phenyl)-5-(4-methylpiperazin-1-yl)imidazo[1,2-a]pyridine]
4 | 1 to 10 µM | Cn1cc(-c2ccc(-c3cnc4cccc(N5CCOCC5)n34)cc2)cn1 [Compound P-0395, 4-(3-(4-(1-methyl-1H-pyrazol-4-yl)phenyl)imidazo[1,2-a]pyridin-5-yl)morpholine]
5 | 0.1 to 1 µM | Cn1cc(-c2ccc(-c3cnc4cccc(N5CCC(C)(O)CC5)n34)cc2)cn1 [Compound P-0396, 4-methyl-1-(3-(4-(1-methyl-1H-pyrazol-4-yl)phenyl)imidazo[1,2-a]pyridin-5-yl)piperidin-4-ol]
6 | 0.1 to 1 µM | Cn1cc(-c2ccc(-c3cnc4cccc(N5CCC(O)CC5)n34)cc2)cn1 [Compound P-0397, 1-(3-(4-(1-methyl-1H-pyrazol-4-yl)phenyl)imidazo[1,2-a]pyridin-5-yl)piperidin-4-ol]
7 | 1 to 10 µM | COC(=O)C1(C)CCN(c2cccc3ncc(-c4ccc(-c5cnn(C)c5)cc4)n23)CC1 [Compound P-0399, methyl 4-methyl-1-(3-(4-(1-methyl-1H-pyrazol-4-yl)phenyl)imidazo[1,2-a]pyridin-5-yl)piperidine-4-carboxylate]
8 | 0.1 to 1 µM | Cn1cc(-c2ccc(-c3cnc4cccc(N5CCC(C(N)=O)CC5)n34)cc2)cn1 [Compound P-0400, 1-(3-(4-(1-methyl-1H-pyrazol-4-yl)phenyl)imidazo[1,2-a]pyridin-5-yl)piperidine-4-carboxamide]
9 | 0.0001 to 0.1 µM | Cn1cc(-c2ccc(-c3cnc4cccc(N5CCC(C)(C#N)CC5)n34)cc2)cn1 [Compound P-0401, 4-methyl-1-(3-(4-(1-methyl-1H-pyrazol-4-yl)phenyl)imidazo[1,2-a]pyridin-5-yl)piperidine-4-carbonitrile]
10 | 0.0001 to 0.1 µM | Cn1ncc2cc(-c3cnn4cccc(N5CCC(C)(C#N)CC5)c34)ccc21 [Compound P-0403, 4-methyl-1-(3-(1-methyl-1H-indazol-5-yl)pyrazolo[1,5-a]pyridin-4-yl)piperidine-4-carbonitrile]
11 | 0.0001 to 0.1 µM | CC1(C#N)CCN(c2cccn3ncc(-c4ccc(-c5cnn(C(F)F)c5)cc4)c23)CC1 [Compound P-0404, 1-[3-[4-[1-(difluoromethyl)pyrazol-4-yl]phenyl]pyrazolo[1,5-a]pyridin-4-yl]-4-methyl-piperidine-4-carbonitrile]
12 | 0.0001 to 0.1 µM | Cn1ncc2cc(-c3cnn4cccc(N5CCC(C#N)CC5)c34)ccc21 [Compound P-0405, 1-(3-(1-methyl-1H-indazol-5-yl)pyrazolo[1,5-a]pyridin-4-yl)piperidine-4-carbonitrile]
13 | 0.1 to 1 µM | CC(C)(O)C#Cc1cccn2ncc(-c3ccc(OCCN4CCCCC4)cc3)c12 [Compound P-0406, 2-methyl-4-(3-(4-(2-(piperidin-1-yl)ethoxy)phenyl)pyrazolo[1,5-a]pyridin-4-yl)but-3-yn-2-ol]
14 | 0.1 to 1 µM | Cn1cc(C#Cc2cnc3cccc(N4CCC(C#N)CC4)n23)cn1 [Compound P-0409, 1-(3-((1-methyl-1H-pyrazol-4-yl)ethynyl)imidazo[1,2-a]pyridin-5-yl)piperidine-4-carbonitrile]
15 | 1 to 10 µM | CC(C)(O)C#Cc1cccn2ncc(-c3ccc(Oc4ccccc4)cc3)c12 [Compound P-0410, 2-methyl-4-(3-(4-phenoxyphenyl)pyrazolo[1,5-a]pyridin-4-yl)but-3-yn-2-ol]
16 | 0.1 to 1 µM | CC(C)(O)C#Cc1cccn2ncc(-c3ccc(NS(=O)(=O)C4CC4)cc3)c12 [Compound P-0412, N-(4-(4-(3-hydroxy-3-methylbut-1-yn-1-yl)pyrazolo[1,5-a]pyridin-3-yl)phenyl)cyclopropane-sulfonamide]

Row | IC50 | Structure (SMILES)
17 | 1 to 10 µM | CC(C)(O)C#Cc1cccn2ncc(-c3ccc(S(=O)(=O)N4CCCCC4)cc3)c12 [Compound P-0413, 2-methyl-4-(3-(4-(piperidin-1-ylsulfonyl)phenyl)pyrazolo[1,5-a]pyridin-4-yl)but-3-yn-2-ol]
18 | 0.0001 to 0.1 µM | Cn1ncc2cc(-c3cnn4cccc(C#CC(C)(C)O)c34)ccc21 [Compound P-0414, 2-methyl-4-(3-(1-methyl-1H-indazol-5-yl)pyrazolo(1,5-a]pyridin-4-yl)but-3-yn-2-ol]
19 | 0.1 to 1 µM | CNC(=O)C1CC=C(c2cccc3ncc(-c4ccc(-c5cnn(C)c5)cc4)n23)CC1 (centres unmarked) [Compound P-0417, N-methyl-4-(3-(4-(1-methyl-1H-pyrazol-4-yl)phenyl)imidazo[1,2-a]pyridin-5-yl)cyclohex-3-ene-1-carboxamide]
20 | 0.1 to 1 µM | Cn1cc(-c2ccc(-c3cnc4cccc(C5=CCN(S(C)(=O)=O)CC5)n34)cc2)cn1 [Compound P-0419, 3-(4-(1-methyl-1H-pyrazol-4-yl)phenyl)-5-(1-(methylsulfonyl)-1,2,3,6-tetrahydropyridin-4-yl)imidazo[1,2-a]pyridine]
21 | 1 to 10 µM | CCOC(=O)C1CC=C(c2cccc3ncc(-c4ccc(-c5cnn(C)c5)cc4)n23)CC1 (centres unmarked) [Compound P-0420, ethyl 4-(3-(4-(1-methyl-1H-pyrazol-4-yl)phenyl)imidazo[1,2-a]pyridin-5-yl)cyclohex-3-ene-1-carboxylate]
22 | 0.0001 to 0.1 µM | Cn1cc(-c2ccc(-c3cnn4cccc(N5CCC(C#N)CC5)c34)cc2)cn1 [Compound P-0422, 1-(3-(4-(1-methyl-1H-pyrazol-4-yl)phenyl)pyrazolo[1,5-a]pyridin-4-yl)piperidine-4-carbonitrile]
23 | 0.0001 to 0.1 µM | N#CC1CCN(c2cccn3ncc(-c4ccc(-c5nc(C6CC6)no5)cc4)c23)CC1 [Compound P-0423, 1-(3-(4-(3-cyclopropyl-1,2,4-oxadiazol-5-yl)phenyl)pyrazolo[1,5-a]pyridin-4-yl)piperidine-4-carbonitrile]
24 | 1 to 10 µM | N#CC1CCN(c2cccn3ncc(-c4ccc(-c5nc(C(F)(F)F)no5)cc4)c23)CC1 [Compound P-0424, 1-(3-(4-(3-(trifluoromethyl)-1,2,4-oxadiazol-5-yl)phenyl)pyrazolo[1,5-a]pyridin-4-yl)piperidine-4-carbonitrile]
25 | 1 to 10 µM | Cn1cc(-c2ccc(-c3cnn4cccc(-c5ccnc(C#N)c5)c34)cc2)cn1 [Compound P-0425, 4-[3-[4-(1-methylpyrazol-4-yl)phenyl]pyrazolo[1,5-a]pyridin-4-yl]pyridine-2-carbonitrile]
26 | 0.0001 to 0.1 µM | Cn1cc(-c2ccc(-c3cnn4cccc(C#CC(O)c5ccccc5)c34)cc2)cn1 (centres unmarked) [Compound P-0426, 3-[3-[4-(1-methylpyrazol-4-yl)phenyl]pyrazolo[1,5-a]pyridin-4-yl]-1-phenyl-prop-2-yn-1-ol]
27 | 0.1 to 1 µM | Cn1cc(-c2ccc(-c3cnc4cccc(OC5CCOCC5)n34)cc2)cn1 [Compound P-0427, 3-(4-(1-methyl-1H-pyrazol-4-yl)phenyl)-5-((tetrahydro-2H-pyran-4-yl)oxy)imidazo[1,2-a]pyridine]
28 | 0.1 to 1 µM | Cn1cc(C#Cc2cccn3ncc(-c4ccc(-c5cnn(C)c5)cc4)c23)cn1 [Compound P-0428, 4-((1-methyl-1H-pyrazol-4-yl)ethynyl)-3-(4-(1-methyl-1H-pyrazol-4-yl)phenyl)pyrazolo[1,5-a]pyridine]
29 | 1 to 10 µM | Cn1cc(-c2ccc(-c3cnn4cccc(-c5cn[nH]c5)c34)cc2)cn1 [Compound P-0430, 3-(4-(1-methyl-1H-pyrazol-4-yl)phenyl)-4-(1H-pyrazol-4-yl)pyrazolo[1,5-a]pyridine]
30 | 1 to 10 µM | Cn1cc(-c2ccc(-c3cnn4cccc(-c5cnn(C(=O)OC(C)(C)C)c5)c34)cc2)cn1 [Compound P-0431, tert-butyl 4-(3-(4-(1-methyl-1H-pyrazol-4-yl)phenyl)pyrazolo[1,5-a]pyridin-4-yl)-1H-pyrazole-1-carboxylate]
31 | 1 to 10 µM | Cn1cc(-c2ccc(-c3c[nH]c4ncc(Br)c(N5CCC(C#N)CC5)c34)cc2)cn1 [Compound P-0432, 1-[5-bromo-3-[4-(1-methylpyrazol-4-yl)phenyl]-H-pyrrolo[2,3-b]pyridin-4-yl]piperidine-4-carbonitrile]
32 | 0.0001 to 0.1 µM | Cn1cc(C#Cc2cnn3cccc(C4=CCC(C#N)CC4)c23)cn1 (centres unmarked) [Compound P-0433, 4-[3-[2-(1-methylpyrazol-4-yl)ethynyl]pyrazolo[1,5-a]pyridin-4-yl]cyclohex-3-ene-1-carbonitrile]
